Experimental data taken from US20080153862A1, “SPIROPIPERIDINE DERIVATIVES” (priority 2006, published 2008).

The compounds below were run against T1, human V1a receptor (Homo sapiens, UniProt P37288) (assay: V1a activity: human V1a receptor binding (3H-Vasopressin SPA, HEK293 membranes)). Conditions: membranes of HEK293 cells transiently transfected with human V1a receptor, Ki by Cheng-Prussoff equation, read-out: pKi hV1a (converted).
T1 construct: expressed in transfected cells; host or cells: HEK293 cells, transiently transfected; membrane preparation
T1 sequence (P37288 whole entry): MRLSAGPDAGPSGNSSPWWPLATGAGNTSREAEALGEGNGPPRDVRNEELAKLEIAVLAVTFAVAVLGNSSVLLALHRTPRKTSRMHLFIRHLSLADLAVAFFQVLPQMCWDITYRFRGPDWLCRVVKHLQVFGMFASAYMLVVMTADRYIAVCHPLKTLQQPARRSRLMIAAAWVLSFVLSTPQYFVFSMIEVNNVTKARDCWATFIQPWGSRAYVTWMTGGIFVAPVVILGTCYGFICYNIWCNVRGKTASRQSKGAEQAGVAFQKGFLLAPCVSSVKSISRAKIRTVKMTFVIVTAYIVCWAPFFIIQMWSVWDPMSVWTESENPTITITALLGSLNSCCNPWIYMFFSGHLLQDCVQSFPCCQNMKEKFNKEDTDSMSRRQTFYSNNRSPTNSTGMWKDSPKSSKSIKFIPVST
Method: The human V1a receptor was cloned by RT-PCR from total human liver RNA. The coding sequence was subcloned in an expression vector after sequencing to confirm the identity of the amplified sequence. […] Cell membranes were prepared from HEK293 cells transiently transfected with the expression vector and grown in 20 liter fermenters with the following protocol.
50 g of cells were resuspended in 30 ml freshly prepared ice cold Lysis buffer (50 mM HEPES, 1 mM EDTA, 10 mM MgCl2 adjusted to pH=7.4+complete cocktail of protease inhibitor (Roche Diagnostics)); homogenized with Polytron for 1 min; and sonicated on ice for 2×2 minutes at 80% intensity (Vibracell sonicator). The preparation was centrifuged 20 min at 500 g at 4° C., the pellet was discarded and the supernatant centrifuged 1 hour at 43′000 g at 4° C. (19′000 rpm). The pellet was resuspended in 12.5 ml Lysis buffer+12.5 ml Sucrose 20% and homogenized using a Polytron for 1-2 min. The protein concentration was determined by the Bradford method, and aliquots were stored at −80° C. until use. For binding studies 60 mg Yttrium silicate SPA beads (Amersham) were mixed with an aliquot of membrane in binding buffer (50 mM Tris, 120 mM NaCl, 5 mM KCl, 2 mM CaCl2, 10 mM MgCl2) for 15 minutes with mixing. 50 ul of bead/membrane mixture was then added to each well of a 96 well plate, followed by 50 ul of 4 nM 3H-Vasopressin (American Radiolabeled Chemicals). For total binding measurement 100 ul of binding buffer were added to the respective wells, for non-specific binding 100 ul of 8.4 mM cold vasopressin and for compound testing 100 ul of a serial dilution of each compound in 2% DMSO. The plate was incubated 1 h at room temperature, centrifuged 1 min at 1000 g and counted on a Packard Top-Count. Non-specific binding counts were subtracted from each well and data was normalized to the maximum specific binding set at 100%. To calculate an IC 50 the curve was fitted using a non-linear regression model (XLfit), and the Ki was calculated using the Cheng-Prussoff equation.

Which Ki does the source give for O=C(c1ccc2ccccc2c1)N1CCC2(C=Cc3ccccc32)CC1 [Example 36, 1′-(2-Naphthoyl)spiro[indene-1,4′-piperidine]] here?
Its Ki is 0.0891 µM.

Which Ki does the source give for O=C1OC2(CCN(C(=O)c3ccc(Cl)c(Cl)c3)CC2)c2ccccc21 [Example 6, 1′-(3,4-Dichlorobenzoyl)-3H-spiro[2-benzofuran-1,4′-piperidin]-3-one] here?
The Ki was 0.0191 µM.

For O=C(c1ccc(Cl)c(Cl)c1)N1CCC2(CCc3ccccc32)CC1 [Example 42, 1′-(3,4-Dichlorobenzoyl)-2,3-dihydrospiro[indene-1,4′-piperidine]], which Ki is on record?
Its Ki is 0.112 µM.

For CC(C)(C)c1ccc(C(=O)N2CCC3(CC2)OCc2ccccc23)cc1 [Example 25, 1′-(4-tert-Butylbenzoyl)-3H-spiro[2-benzofuran-1,4′-piperidine]], which Ki is on record?
The Ki was 0.0631 µM.

Which Ki does the source give for O=C(c1ccc2ccccc2c1)N1CCC2(CC1)C(=O)Nc1ccc(Br)cc12 [Example 33, 5-Bromo-1′-(2-naphthoyl)spiro[indole-3,4′-piperidin]-2(1H)-one] here?
Its Ki is 0.11 µM.

With COc1ccc2c(c1)C1(CCN(C(=O)c3ccc(Cl)c(Cl)c3)CC1)OC2=O [Example 7, 1′-(3,4-Dichlorobenzoyl)-6-methoxy-3H-spiro[2-benzofuran-1,4′-piperidin]-3-one] as the compound, how does the Ki read?
The Ki was 0.0288 µM.

Which Ki does the source give for O=C1OC2(CCN(C(=O)c3ccc(Cl)c(Cl)c3)CC2)c2ccc(F)cc21 [Example 11, 1′-(3,4-Dichlorobenzoyl)-5-fluoro-3H-spiro[2-benzofuran-1,4′-piperidin]-3-one] here?
Its Ki is 0.0295 µM.

Which Ki does the source give for O=C1OC2(CCN(C(=O)c3ccc(Cl)c(Cl)c3)CC2)c2cc(OCCO)ccc21 [Example 12, 1′-(3,4-Dichlorobenzoyl)-6-(2-hydroxyethoxy)-3H-spiro[2-benzofuran-1,4′-piperidin]-3-one] here?
Its Ki is 0.0219 µM.

With COc1ccc2c(c1)C(=O)OC21CCN(C(=O)c2ccc(Cl)c(Cl)c2)CC1 [Example 9, 1′-(3,4-Dichlorobenzoyl)-5-methoxy-3H-spiro[2-benzofuran-1,4′-piperidin]-3-one] as the compound, how does the Ki read?
Its Ki is 0.0479 µM.

For COc1cc(C(=O)N2CCC3(CC2)OCc2ccccc23)c2[nH]ccc2c1 [Example 27, 1′-[(5-Methoxy-1H-indol-7-yl)carbonyl]-3H-spiro[2-benzofuran-1,4′-piperidine]], which Ki is on record?
Its Ki is 0.0501 µM.

With COc1ccc2c(c1)C1(CCN(C(=O)c3ccc4ccccc4c3)CC1)OC2=O [Example 1, 6-Methoxy-1′-(2-naphthoyl)-3H-spiro[2-benzofuran-1,4′-piperidin]-3-one] as the compound, how does the Ki read?
Its Ki is 0.00832 µM.
